Reference: patent US20040214789A1, “Therapeutics” (priority 2001, published 2004)
“Also recorded” adds a separate entry of the source.

Key:
[1] = tested on: NAD glycohydrolase activity of P10 membranes from Jurkat T lymphocytes; experiment: Inhibition of NAD glycohydrolase (NADase) activity in the P10 fraction; type: biochemical, human; conditions: for Enzyme Activity (% of control), NAD glycohydrolase activity: P10 fraction; for Inhibition of NADase activity in the P10 fraction (in words): FIG. 3
Protocol: (§1) Heavy membrane (P10 membranes) were prepared from Jurkat T cells (10^9 cells) as described (Guse et al., Nature 1999). P10-ADP-ribosyl cyclase was then incubated with 100 μM substrate (1,N^6-etheno-NAD) in the presence or absence of various concentrations of 8-Br-NHD. The formation of 1,N^6-etheno-cADPR and 1,N^6-etheno-ADPR was continuously monitored by fluorimetry (exc. 300 nm, em. 410 nm). Finally, the precise amount of products 1,N^6-etheno-cADPR and 1,N^6-etheno-ADPR was quantified by HPLC (da Silva et al., 1998a) using a fluorescence detector. Data are presented as mean±SD (n≧3).

[2] = tested on: soluble ADP-ribosyl cyclase from Jurkat T lymphocytes; experiment: Inhibition of partially purified soluble ADP-ribosyl cyclase, cyclase activity; type: biochemical, human; conditions: soluble fraction, 100 μM 1,N6-etheno-NAD substrate
Protocol: as §1, with “FIG. 1-a, b—Inhibition of intracellular, soluble ADP-ribosyl cyclase by 8-Br-NHD. Soluble protein (S100 protein) was” for “Heavy membrane (P10 membranes) were”, “1999) and soluble ADP-ribosyl cyclase was partially purified by hydroxyapatite chromatography. Partially purified ADP-ribosyl” for “1999). P10-ADP-ribosyl”, “mean ±SD” for “mean±SD”
(§2) Soluble protein (S100 protein) was prepared from Jurkat T cells (10^9 cells) as described (Guse et al., Nature 1999) and soluble ADP-ribosyl cyclase was partially purified by hydroxyapatite chromatography. […] The formation of 1,N^6-etheno-cADPR and 1,N^6-etheno-ADPR was continuously monitored by fluorimetry (exc. 300 nm, em. 410 nm). Finally, the precise amount of products 1,N^6-etheno-cADPR and 1,N^6-etheno-ADPR was quantified by HPLC (da Silva et al., 1998a) using a fluorescence detector. Data are presented as mean±SD (n≧3).

NADase = conditions: positive controls; cited from earlier work
[3] = tested on: P10 ADP-ribosyl cyclase from Jurkat T lymphocytes; experiment: Inhibition of P10 (heavy membrane) ADP-ribosyl cyclase, cyclase activity; type: biochemical, human; conditions: for Enzyme Activity (% of control), Cyclase activity: P10 fraction, 100 μM 1,N6-etheno-NAD substrate; for Inhibition of intracellular membrane bound P10 ADP-ribosyl cyclase (in words): heavy (P10) membranes from Jurkat T cells, FIG. 3
Protocol: as §1

[4] = tested on: NAD glycohydrolase activity of soluble protein fraction from Jurkat T lymphocytes; experiment: Inhibition of NAD glycohydrolase (NADase) activity in the soluble fraction; type: biochemical, human
Protocol: FIG. 1-a, b—Inhibition of intracellular, soluble ADP-ribosyl cyclase by 8-Br-NHD. Soluble protein (S100 protein) was prepared from Jurkat T cells (10^9 cells) as described (Guse et al., Nature 1999) and soluble ADP-ribosyl cyclase was partially purified by hydroxyapatite chromatography. Partially purified ADP-ribosyl cyclase was then incubated with 100 μM substrate (1,N^6-etheno-NAD) in the presence or absence of various concentrations of 8-Br-NHD. The formation of 1,N^6-etheno-cADPR and 1,N^6-etheno-ADPR was continuously monitored by fluorimetry (exc. 300 nm, em. 410 nm). Finally, the precise amount of products 1,N^6-etheno-cADPR and 1,N^6-etheno-ADPR was quantified by HPLC (da Silva et al., 1998a) using a fluorescence detector. Data are presented as mean ±SD (n≧3).
as §2

human Jurkat T cells = experiment: Proliferation of Jurkat T cells, trypan blue cell counting; type: cell-based; conditions: present for 4 or 5 days; FIG. 6
Protocol: FIG. 6—Inhibition of proliferation of the human Jurkat T cell line by 8-Br-NHD. Proliferation of intact Jurkat T cells was measured as described earlier (Guse et al., Cell Calcium 1997). Various concentrations of 8-Br-NHD were added to the cultures in 96 well plates, and were present for 4 or 5 days. The number of living cells was determined every day by cell counting of trypan blue stained cells. Data are mean±SD from 2 independent experiments.

[5] = molecular target: T1, ecto-ADP-ribosyl cyclase (CD38) (Homo sapiens, UniProt P28907); experiment: Inhibition of cell surface ADP-ribosyl cyclase on intact Jurkat T cells; type: cell-based; conditions: FIG. 4
T1 construct: Intact Jurkat T cells expressing ecto-ADP-ribosyl cyclase; endogenous in cells; host or cells: intact Jurkat T cells
T1 sequence (P28907 1-300): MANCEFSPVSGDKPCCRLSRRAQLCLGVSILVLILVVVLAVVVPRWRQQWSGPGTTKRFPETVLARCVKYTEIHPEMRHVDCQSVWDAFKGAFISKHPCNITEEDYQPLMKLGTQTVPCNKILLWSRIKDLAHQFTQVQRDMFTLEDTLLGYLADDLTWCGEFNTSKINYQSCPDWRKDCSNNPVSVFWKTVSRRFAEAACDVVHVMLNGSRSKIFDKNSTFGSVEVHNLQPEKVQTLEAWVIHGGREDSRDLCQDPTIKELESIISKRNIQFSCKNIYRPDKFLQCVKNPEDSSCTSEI
Protocol: as §1, with “Intact” for “Heavy membrane (P10 membranes) were prepared from”, “expressing ecto-ADP-ribosyl cyclase (da Silva” for “(10^9 cells) as described (Guse”, “1998b) were” for “Nature 1999). P10-ADP-ribosyl cyclase was then”, “8-Br-NHD. It is likely that this enzyme is CD38.” for “8-Br-NHD.”

[6] = molecular target: T2, NADase activity of intact Jurkat T cells expressing ecto-ADP-ribosyl cyclase (Homo sapiens, UniProt P28907); experiment: Inhibition of NADase activity on intact Jurkat T cells; type: cell-based; conditions: FIG. 4
T2 construct: Intact Jurkat T cells expressing ecto-ADP-ribosyl cyclase; endogenous in cells; host or cells: intact Jurkat T cells
T2 sequence (P28907 1-300): T1 sequence (P28907 1-300)
Protocol: as §1, with “Intact” for “Heavy membrane (P10 membranes) were prepared from”, “expressing ecto-ADP-ribosyl cyclase (da Silva” for “(10^9 cells) as described (Guse”, “1998b) were” for “Nature 1999). P10-ADP-ribosyl cyclase was then”, “8-Br-NHD. It is likely that this enzyme is CD38.” for “8-Br-NHD.”

[7] = tested on: TCR/CD3-mediated Ca2+-signalling of the human Jurkat T cell line; experiment: TCR/CD3-mediated Ca2+ signalling, Fura2 ratiometric imaging; type: cell-based; conditions: preincubation 250 or 500 μM for 30 min, anti-CD3 OKT3 stimulation, 25 min after stimulation; FIG. 5
Protocol: Intact Jurkat T cells were loaded with Fura2-AM, and Ca^2+ signalling was measured by digital ratiometric Ca^2+ imaging (Guse et al., Nature 1999). For technical reasons the excitation wavelengths were set to 340 and 365 nm, whereas emission was filtered at 520 nm. The cells were preincubated with 250 or 500 μM 8-Br-NHD for 30 min. Then the cells were stimulated by anti-CD3 antibody OKT3 ([…]) in solution, and the cells were transferred to the examination chamber on the digital imaging station. The intracellular Ca^+ concentration was then monitored for about 25 min with a sampling rate of 3 or 6/min. Data are presented as mean intracellular Ca^2+ concentration ±SEM 25 min after stimulation. Numbers in brackets indicate the number of cells investigated in 3 independent experiments.

Enzyme Activity (% of control), NAD glycohydrolase activity ([1]; inhibitor 10 μM)	Enzyme Activity (% of control), NAD glycohydrolase activity ([1]; inhibitor 100 μM)	Enzyme Activity (% of control), NAD glycohydrolase activity ([1]; inhibitor 1000 μM)	Enzyme Activity (% of control), Cyclase activity ([2]; inhibitor 10 μM)	Enzyme Activity (% of control), Cyclase activity ([2]; inhibitor 100 μM)	Enzyme Activity (% of control), Cyclase activity ([2]; inhibitor 1000 μM)	Enzyme Activity (% of control), Cyclase activity ([3]; inhibitor 10 μM)	Enzyme Activity (% of control), Cyclase activity ([3]; inhibitor 100 μM)	Enzyme Activity (% of control), Cyclase activity ([3]; inhibitor 1000 μM)	Enzyme Activity (% of control), NAD glycohydrolase activity ([4]; inhibitor 10 μM)	Enzyme Activity (% of control), NAD glycohydrolase activity ([4]; inhibitor 100 μM)	Enzyme Activity (% of control), NAD glycohydrolase activity ([4]; inhibitor 1000 μM)	Inhibition of NADase activity in the P10 fraction (in words) [1]	Inhibition of intracellular membrane bound P10 ADP-ribosyl cyclase (in words) [3]	SMILES	Published as inhibitor of NADase (NADase)	Proliferation of Jurkat T cells (in words) (human Jurkat T cells)	Inhibition of ecto-ADP-ribosyl cyclase (in words) [5]	Inhibition of NADase activity, cell surface (in words) [6]	Second, sustained phase of Ca2+ signaling (in words) [7]
115.0 % of control	91.9 % of control	48.8 % of control	80.5 % of control	65.4 % of control	36.5 % of control	112.3 % of control	93.4 % of control	56.9 % of control	81.3 % of control	59.4 % of control	26.9 % of control	–	–	NC(=O)c1ccc[n+]([C@@H]2O[C@H](COP(=O)([O-])O)[C@@H](O)[C@H]2O)c1 [β-NMN, β-nicotinamide mononucleotide, reference compound]	published as inhibitors of NADase	–	–	–	–
94.2 % of control	42.6 % of control	12.4 % of control	99.2 % of control	38.2 % of control	10.6 % of control	94.0 % of control	43.3 % of control	14.9 % of control	95.2 % of control	29.6 % of control	8.2 % of control	–	–	NC(=O)c1cccnc1 [Nicotinamide, nicotinamide, reference compound]	published as inhibitors of NADase	–	–	–	–

Continued, compound first:

SMILES	Enzyme Activity (% of control), NAD glycohydrolase activity ([1]; inhibitor 10 μM)	Enzyme Activity (% of control), NAD glycohydrolase activity ([1]; inhibitor 100 μM)	Enzyme Activity (% of control), NAD glycohydrolase activity ([1]; inhibitor 1000 μM)	Enzyme Activity (% of control), Cyclase activity ([2]; inhibitor 10 μM)	Enzyme Activity (% of control), Cyclase activity ([2]; inhibitor 100 μM)	Enzyme Activity (% of control), Cyclase activity ([2]; inhibitor 1000 μM)	Enzyme Activity (% of control), Cyclase activity ([3]; inhibitor 10 μM)	Enzyme Activity (% of control), Cyclase activity ([3]; inhibitor 100 μM)	Enzyme Activity (% of control), Cyclase activity ([3]; inhibitor 1000 μM)	Enzyme Activity (% of control), NAD glycohydrolase activity ([4]; inhibitor 10 μM)	Enzyme Activity (% of control), NAD glycohydrolase activity ([4]; inhibitor 100 μM)	Enzyme Activity (% of control), NAD glycohydrolase activity ([4]; inhibitor 1000 μM)	Inhibition of NADase activity in the P10 fraction (in words) [1]	Inhibition of intracellular membrane bound P10 ADP-ribosyl cyclase (in words) [3]	Published as inhibitor of NADase (NADase)	Proliferation of Jurkat T cells (in words) (human Jurkat T cells)	Inhibition of ecto-ADP-ribosyl cyclase (in words) [5]	Inhibition of NADase activity, cell surface (in words) [6]	Second, sustained phase of Ca2+ signaling (in words) [7]
NC(=O)c1ccc[n+]([C@@H]2O[C@H](COP(=O)([O-])OP(=O)(O)OC[C@H]3O[C@@H](n4ccc5c(=O)[nH]cnc54)[C@H](O)[C@@H]3O)[C@@H](O)[C@H]2O)c1 [7-deaza-NHD, 7-deaza-nicotinamide hypoxanthine dinucleotide]	97.5 % of control	83.3 % of control	–	94.0 % of control	69.3 % of control	–	97.9 % of control	82.1 % of control	–	94 % of control	80.5 % of control	–	inhibit	inhibit	–	–	–	–	–
NC(=O)c1ccc[n+](C2OC(COP(=O)(O)OP(=O)(O)OCC3OC(n4cnc5c(=O)[nH]cnc54)C(O)C3O)C(O)C2O)c1 (stereo not drawn) [NHD, nicotinamide hypoxanthine dinucleotide]	59.0 % of control	0 % of control	–	46.0 % of control	10.6 % of control	–	63.6 % of control	11.26 % of control	–	37.3 % of control	13.5 % of control	–	inhibit	inhibit	–	–	–	–	–
NC(=O)c1ccc[n+](C2OC(COP(=O)([O-])OP(=O)(O)OCC3OC(n4c(Br)nc5c(=O)[nH]cnc54)C(O)C3O)C(O)C2O)c1 (stereo not drawn) [8-Br-NHD, nicotinamide 8-bromohypoxanthine dinucleotide]	60.8 % of control	15.6 % of control	–	57.7 % of control	13.0 % of control	–	59.2 % of control	14.3 % of control	–	55.5 % of control	3.3 % of control	–	inhibited with a similar pharmacology; also recorded: inhibit	dose-dependently inhibited; also recorded: inhibit	–	dose-dependently inhibits	dose-dependent inhibition	inhibited with a similar pharmacology	significantly reduced
